Test results from patent US9340554B2, “IRAK inhibitors and uses thereof” (Nimbus Iris, Inc., priority 2011, dated 2016).
Where two headings read alike, the source gives them in different places.

Legend:
[1] = tested on: LPS induced IL8 production in THP-1 cells; experiment: LPS induced THP-1 cell cytokine production assay, IL8 (HTRF); type: cell-based; settings: Homo sapiens
Procedure: (§1) Provided compounds were also assayed in an LPS (Lipopolysacharide) induced THP-1 cell cytokine (TNFα and IL8) production assay. The protocol for this assay was as follows below. THP-1 cells from ATCC (TIB-202) were cultured in RPMI Medium 1640 (Invitrogen, Cat No. […] LPS-EK ultra pure (Invivogen, Cat No. tlrl-peklps) was used to induce IL8 and TNFα production, that was detected in the cell culture supernatant by IL8 HTRF kit (Cisbio, Cat No. 62IL8PEB) and TNFα HTRF kit (Cisbio, Cat No. 62[…]), as per manufacturer instructions. Cells were cultured in 96 well assay plates at 100,000 cells per well, and compounds diluted in final 0.3% DMSO were pre-incubated with cells for 1 hour prior to stimulation with 300 ng/mL LPS. […] The compound numbers correspond to the compound numbers in Table 1.

[2] = tested on: LPS induced TNFα production in THP-1 cells; experiment: LPS induced THP-1 cell cytokine production assay, TNFα (HTRF); type: cell-based; settings: Homo sapiens
Procedure: as §1

IRAK4 = biological target: T1, IRAK4 (Homo sapiens, UniProt Q9NWZ3); experiment: IRAK-4 activity inhibition assay (Caliper, Peptide 8, 37 μM ATP); type: biochemical; settings: 3.5 nM IRAK4, 1.5 μM Peptide 8, 37 μM ATP, 28° C. 40 minutes; read-out: IRAK-4 activity inhibition IC50
T1 construct: purchased CARNA Bioscience 09-145
T1 sequence (Q9NWZ3 1-460): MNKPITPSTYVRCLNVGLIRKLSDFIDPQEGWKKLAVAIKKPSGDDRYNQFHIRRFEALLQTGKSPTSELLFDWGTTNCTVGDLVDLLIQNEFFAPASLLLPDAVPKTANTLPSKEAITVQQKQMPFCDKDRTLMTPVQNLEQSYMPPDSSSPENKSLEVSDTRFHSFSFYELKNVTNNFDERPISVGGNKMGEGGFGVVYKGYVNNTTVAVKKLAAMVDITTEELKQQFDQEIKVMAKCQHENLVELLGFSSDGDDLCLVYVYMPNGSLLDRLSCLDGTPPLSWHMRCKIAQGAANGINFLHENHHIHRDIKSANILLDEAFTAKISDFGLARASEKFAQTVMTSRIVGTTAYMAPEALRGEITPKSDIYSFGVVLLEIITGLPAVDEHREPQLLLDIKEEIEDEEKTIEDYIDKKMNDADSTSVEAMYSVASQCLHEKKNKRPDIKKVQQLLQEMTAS

[3] = THP-1 cells, 300 ng/mL LPS, 1 hour pre-incubation, supernatant at 5 hours / 16 hours, read-out: IL8 production IC50
[4] = THP-1 cells, 300 ng/mL LPS, 1 hour pre-incubation, supernatant at 5 hours, read-out: TNFα production IC50

SMILES | IC50 (IRAK4) | further results
CN(C)[C@H]1CC[C@H](Nc2ncnc3sc4c(c23)CCC4)CC1 [Compound I-12, trans-N^1-(6,7-dihydro-5H-cyclopenta[4,5]thieno[2,3-d]pyrimidin-4-yl)-N^4,N^4-dimethylcyclohexane-1,4-diamine] | – | IC50 ([1]; THP-1, read-out: IL8 production IC50): 0.5 to 1 µM; IC50 ([2]; THP-1, read-out: TNFα production IC50): 0.5 to 1 µM
CN(CC(=O)N1CCCC1)[C@H]1CC[C@H](Oc2ncnc3sc4c(c23)CCC4)CC1 [Compound I-133] | < 5 µM | IC50 [1, 3]: 1 to 5 µM; IC50 [2, 4]: 1 to 5 µM
c1nc(N[C@H]2CC[C@H](N3CCCCC3)CC2)c2c3c(sc2n1)CCC3 [Compound I-143, N-((1r,4r)-4-(piperidin-1-yl)cyclohexyl)-6,7-dihydro-5H-cyclopenta[4,5]thieno[2,3-d]pyrimidin-4-amine] | < 5 µM | –
OCC(CO)Nc1ncnc2sc3c(c12)CCC3 [Compound I-145] | 20 to 50 µM | –
CN[C@H]1CC[C@H](N(C)c2ncnc3sc4c(c23)CCC4)CC1 [Compound I-146, (1r,4r)-N1-(6,7-dihydro-5H-cyclopenta[4,5]thieno[2,3-d]pyrimidin-4-yl)-N1,N4-dimethylcyclohexane-1,4-diamine] | < 5 µM | –
c1nc(NCCN2CCNCC2)c2c3c(sc2n1)CCC3 [Compound I-147, N-(2-(piperazin-1-yl)ethyl)-6,7-dihydro-5H-cyclopenta[4,5]thieno[2,3-d]pyrimidin-4-amine] | > 50 µM | –
CN(C)[C@H]1CC[C@H](COc2ncnc3sc4c(c23)CCC4)CC1 [Compound I-148, (1r,4r)-4-(((6,7-dihydro-5H-cyclopenta[4,5]thieno[2,3-d]pyrimidin-4-yl)oxy)methyl)-N,N-dimethylcyclohexanamine] | 20 to 50 µM | –
c1nc(N[C@H]2CC[C@H](N3CCOCC3)CC2)c2c3c(sc2n1)CCC3 [Compound I-149, N-((1r,4r)-4-morpholinocyclohexyl)-6,7-dihydro-5H-cyclopenta[4,5]thieno[2,3-d]pyrimidin-4-amine] | < 5 µM | –
CN(C)CCN1CCN(c2ncnc3sc4c(c23)CCC4)CC1 [Compound I-150, 2-(4-(6,7-dihydro-5H-cyclopenta[4,5]thieno[2,3-d]pyrimidin-4-yl)piperazin-1-yl)-N,N-dimethylethanamine] | 20 to 50 µM | –
CN(Cc1ccccc1)[C@H]1CC[C@H](Nc2ncnc3sc4c(c23)CCC4)CC1 [Compound I-151, (1r,4r)-N1-benzyl-N4-(6,7-dihydro-5H-cyclopenta[4,5]thieno[2,3-d]pyrimidin-4-yl)-N1-methylcyclohexane-1,4-diamine] | < 5 µM | –
CN[C@H]1CC[C@@H](Nc2ncnc3sc4c(c23)CCC4)CC1 [Compound I-156, (1s,4s)-1-N-methyl-4-N-[7-thia-9,11-diazatricyclo[6.4.0.0^[2,6]]dodeca-1(12),2(6),8,10-tetraen-12-yl]cyclohexane-1,4-diamine] | 20 to 50 µM | –
CC(C)N[C@H]1CC[C@H](Nc2ncnc3sc4c(c23)CCC4)CC1 [Compound I-157, 1-N-(propan-2-yl)-4-N-[7-thia-9,11-diazatricyclo[6.4.0.0^[2,6]]dodeca-1(8),2(6),9,11-tetraen-12-yl]cyclohexane-1,4-diamine] | < 5 µM | –
c1nc(N[C@H]2CC[C@H](N3CCC3)CC2)c2c3c(sc2n1)CCC3 [Compound I-158, N-[4-(azetidin-1-yl)cyclohexyl]-7-thia-9,11-diazatricyclo[6.4.0.0^[2,6]]dodeca-1(8),2(6),9,11-tetraen-12-amine] | < 5 µM | –
c1nc(N[C@H]2CC[C@@H](N3CCC3)CC2)c2c3c(sc2n1)CCC3 [Compound I-159, N-((1s,4s)-4-(azetidin-1-yl)cyclohexyl)-6,7-dihydro-5H-cyclopenta[4,5]thieno[2,3-d]pyrimidin-4-amine] | 20 to 50 µM | –
c1nc(N[C@H]2CC[C@@H](N3CCOCC3)CC2)c2c3c(sc2n1)CCC3 [Compound I-160, N-((1s,4s)-4-morpholinocyclohexyl)-6,7-dihydro-5H-cyclopenta[4,5]thieno[2,3-d]pyrimidin-4-amine] | 5 to 20 µM | –
CC(C)N[C@H]1CC[C@@H](Nc2ncnc3sc4c(c23)CCC4)CC1 [Compound I-161] | > 50 µM | –
CN(Cc1cccc(CO)c1)[C@H]1CC[C@H](Nc2ncnc3sc4c(c23)CCC4)CC1 [Compound I-165, [3-([methyl[4-([7-thia-9,11-diazatricyclo[6.4.0.0^[2,6]]dodeca-1(8),2(6),9,11-tetraen-12-yl]amino)cyclohexyl]amino]methyl)phenyl]methanol] | < 5 µM | –
CN(CCc1ccccc1)[C@H]1CC[C@H](Nc2ncnc3sc4c(c23)CCC4)CC1 [Compound I-168, 1-N-methyl-1-N-(2-phenylethyl)-4-N-[7-thia-9,11-diazatricyclo[6.4.0.0^[2,6]]dodeca-1(8),2(6),9,11-tetraen-12-yl]cyclohexane-1,4-diamine] | < 5 µM | –
COCCN(C)[C@H]1CC[C@H](Nc2ncnc3sc4c(c23)CCC4)CC1 [Compound I-169, 1-N-(2-methoxyethyl)-1-N-methyl-4-N-[7-thia-9,11-diazatricyclo[6.4.0.0^[2,6]]dodeca-1(8),2(6),9,11-tetraen-12-yl]cyclohexane-1,4-diamine] | < 5 µM | –
CN(C)[C@H]1CC[C@H](Nc2nc(Nc3ccccc3)nc3sc4c(c23)CCC4)CC1 [Compound I-201, 12-N-[4-(dimethylamino)cyclohexyl]-10-N-phenyl-7-thia-9,11-diazatricyclo[6.4.0.0[2,6]]dodeca-1(8),2(6),9,11-tetraene-10,12-diamine] | – | IC50 [1, 3]: 1 to 5 µM; IC50 [2, 4]: 1 to 5 µM

Continued, in another order:

IC50 (IRAK4) | SMILES | further results
< 5 µM | CN(CC(=O)N1CCCC1)[C@H]1CC[C@H](Nc2ncnc3sc4c(c23)CCC4)CC1 [Compound I-124, 2-[methyl[4-([7-thia-9,11-diazatricyclo[6.4.0.0[2,6]]dodeca-1(12),2(6),8,10-tetraen-12-yl]amino)cyclohexyl]amino]-1-(pyrrolidin-1-yl)ethan-1-one] | IC50 [1, 3]: 0.5 to 1 µM; IC50 [2, 4]: 1 to 5 µM
< 5 µM | CN(C)[C@H]1CC[C@H](N(C)c2ncnc3sc4c(c23)CCC4)CC1 [Compound I-144, (1r,4r)-N1-(6,7-dihydro-5H-cyclopenta[4,5]thieno[2,3-d]pyrimidin-4-yl)-N1,N4,N4-trimethylcyclohexane-1,4-diamine] | –
> 50 µM | C[C@@H](Nc1ncnc2sc3c(c12)CCC3)C(=O)O [Compound I-153] | –
5 to 20 µM | N[C@H]1CC[C@@H](Nc2ncnc3sc4c(c23)CCC4)CC1 [Compound I-154, (1s,4s)-N1-(6,7-dihydro-5H-cyclopenta[4,5]thieno[2,3-d]pyrimidin-4-yl)cyclohexane-1,4-diamine] | –
< 5 µM | CN(Cc1ccncc1)[C@H]1CC[C@H](Nc2ncnc3sc4c(c23)CCC4)CC1 [Compound I-162] | –
< 5 µM | CN(Cc1cccnc1)[C@H]1CC[C@H](Nc2ncnc3sc4c(c23)CCC4)CC1 [Compound I-163, 1-N-methyl-1-N-(pyridin-3-ylmethyl)-4-N-[7-thia-9,11-diazatricyclo[6.4.0.0^[2,6]]dodeca-1(12),2(6),8,10-tetraen-12-yl]cyclohexane-1,4-diamine] | –
< 5 µM | CN(Cc1ccc(C(N)=O)cc1)[C@H]1CC[C@H](Nc2ncnc3sc4c(c23)CCC4)CC1 [Compound I-164, 4-([methyl[4-([7-thia-9,11-diazatricyclo[6.4.0.0^[2,6]]dodeca-1(8),2(6),9,11-tetraen-12-yl]amino)cyclohexyl]amino]methyl)benzamide] | –
< 5 µM | CN(Cc1cccc(C(N)=O)c1)[C@H]1CC[C@H](Nc2ncnc3sc4c(c23)CCC4)CC1 [Compound I-166, 3-((((1r,4r)-4-((6,7-dihydro-5H-cyclopenta[4,5]thieno[2,3-d]pyrimidin-4-yl)amino)cyclohexyl)(methyl)amino)methyl)benzamide] | –
< 5 µM | CN(Cc1cccc(C(=O)O)c1)[C@H]1CC[C@H](Nc2ncnc3sc4c(c23)CCC4)CC1 [Compound I-167, 3-([methyl[4-([7-thia-9,11-diazatricyclo[6.4.0.0^[2,6]]dodeca-1(8),2(6),9,11-tetraen-12-yl]amino)cyclohexyl]amino]methyl)benzoic acid] | –
